What was measured:
[1] = Side effects observed in the treated patients (informal trials)
Experimental: The treatment method involves essentially two periods: an initial treatment, and a sustaining treatment. First, in the initial treatment the patients orally administrate an initial dosage about 40 mg of 13-cis-retinoic acid daily for a period from about ten days to about twenty days. Thereafter, the patients orally administrate a sustaining dosage about 40 mg of 13-cis-retinoic acid about every five to seven days in a sustaining period. Typically, the sustaining period is about one year. However, it can be extended longer if extended maintenance is needed.
In the initial treatment, 40 mg of 13-cis-retinoic acid can be administrated in a single dose, or divided doses. […] The patients can either take one 40 mg capsule, or take two 20 mg capsules daily. The same applies to the dosage in the sustaining treatment. For convenience, the patients can take one 40 mg dose every five to seven days.
The initial dosage of about 40 mg 13-cis-retinoic acid daily is determined based on average men's body weight of about 160 lbs, i.e. at about 0.25 mg/lb of body weight. For patients who weigh substantially above or less than the average body weight, the dosage described above can be adjusted accordingly. The same principle applies to the sustaining dosage.

[2] = tested on: prostate specific antigen (PSA); assay: Blood PSA level of patients treated orally with Accutane; type: in vivo, human
[3] = tested on: benign prostatic hyperplasia; assay: Clinical treatment of patients with benign prostatic hyperplasia / benign prostate conditions: symptoms and prostate size; type: in vivo, human
[4] = patients of the informal trials

With `CC1=C(/C=C/C(C)=C/C=C/C(C)=C\C(=O)O)C(C)(C)CCC1` [Accutane, 13-cis retinoic acid] the blood chemistries ([1]; Example 1 patient, on sustaining dosage of 40 mg every 5 days) was “remained normal”, the adverse side effects ([1]; Example 1 patient, soreness subsided slowly after the sustaining dose was instituted) was “drying of lips and some musculo-skeletal soreness at sites of old injuries to the fingers and neck” and the adverse side effects ([1]; Example 2 patient) was “No adverse side effects were observed”. The “serious adverse side effects or contra-indications” value [1, 4] was “no serious adverse side effects or contra-indications of any kind were observed”, the PSA after treatment ([2]; Example 1 patient, PSA 4 before, 40 mg orally for 14 days, then 40 mg every 5 days for about one year) was “less than one” and the PSA after treatment ([2]; Example 2 patient, PSA 3 before, after 6 months, 40 mg for 14 days, then 40 mg every 5 days) was “less than one”. The PSA after treatment ([2]; Example 3 patient, chronic posttraumatic prostatitis, PSA 5 before, 40 mg daily for 14 days, then 40 mg every 5 days) was “less than 1”, the PSA after treatment ([2]; Example 4 patient, PSA 4 before, within 6 months, 40 mg per day for 14 days, then 40 mg every 5 days) was “less than 1” and the symptoms ([3]; Example 1 patient, prostatic enlargement and attenuated urine stream, 40 mg for 14 days, then 40 mg every 5 days) was “improved steadily”. The “palpable size of prostate” value ([3]; Example 1 patient, 40 mg for 14 days, then 40 mg every 5 days) was “decreased in palpable size”, the symptoms ([3]; Example 2 patient, prostatic enlargement, decreasing urine flow, urgency, nocturia) was “steady improvement in symptoms” and the symptoms ([3]; Example 3 patient, chronic prostatitis, after the initial treatment, remained so during the sustaining period) was “rapidly became symptom free”. For the same compound, the symptoms ([3]; Example 4 patient, enlarged prostate, urinary tenesmus) was “readily improved”, the prostate enlargement ([3]; approximately twelve patients, by examination and the patients' own anecdotal comments) was “a reduction in prostate enlargement was confirmed” and the “worsening of condition (PSA or hyperplasia), progression to malignancy” value [3, 4] was “none of the conditions of these patients worsened”.
